Source: the supplement of paper PMC10307832

Tests used:
Experiment in all cases: relative viability (nuclei count vs DMSO), 5 days (fraction); higher = more cells survive
Dabrafenib = compound: CC(C)(C)c1nc(-c2cccc(NS(=O)(=O)c3c(F)cccc3F)c2F)c(-c2ccnc(N)n2)s1 [Dabrafenib]
How it was run: (§1)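 Viability was defined as treated-well nuclei divided by vehicle-well nuclei, with the median taken over replicate plates. Cells from lung cancer lines sat overnight at 37 °C in 1536-well plates, received five √10-spaced library-drug doses by pinning on vehicle-anchored plates, and grew 5 days without medium change before one-step fixation, permeabilisation and Hoechst staining, 4× imaging and MetaXpress nuclear counts. Only plates with control CV under 25% and at least one doubling were kept.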

VX-702 = compound: NC(=O)c1ccc(N(C(N)=O)c2c(F)cccc2F)nc1-c1ccc(F)cc1F [VX-702]
How it was run: as §1

Dabrafenib + Navitoclax = compound: CC(C)(C)c1nc(-c2cccc(NS(=O)(=O)c3c(F)cccc3F)c2F)c(-c2ccnc(N)n2)s1 [Dabrafenib] + CC1(C)CCC(c2ccc(Cl)cc2)=C(CN2CCN(c3ccc(C(=O)NS(=O)(=O)c4ccc(N[C@H](CCN5CCOCC5)CSc5ccccc5)c(S(=O)(=O)C(F)(F)F)c4)cc3)CC2)C1 [Navitoclax] (partner 0.5 µM)
How it was run: (§2)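 Medians of duplicate plates are given as relative viability. That measure is the nuclei count in treated wells divided by the count in vehicle wells. Counts were taken on 4× images of lung cancer cell lines in 1536-well plates, 5 days after pin-tool dosing the day after seeding with one drug alone or a fixed anchor-drug dose plus five library-drug doses (not always all listed) in √10 steps.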

Dabrafenib + Foretinib = compound: CC(C)(C)c1nc(-c2cccc(NS(=O)(=O)c3c(F)cccc3F)c2F)c(-c2ccnc(N)n2)s1 [Dabrafenib] + COc1cc2c(Oc3ccc(NC(=O)C4(C(=O)Nc5ccc(F)cc5)CC4)cc3F)ccnc2cc1OCCCN1CCOCC1 [Foretinib] (partner 0.25 µM)
How it was run: as §2

Cell Line | relative viability (Dabrafenib; 0.003 µM) | relative viability (Dabrafenib; 0.009487 µM) | relative viability (Dabrafenib; 0.03 µM) | relative viability (Dabrafenib; 0.09487 µM) | relative viability (Dabrafenib; 0.3 µM) | relative viability (VX-702; 0.02 µM) | relative viability (VX-702; 0.2 µM) | relative viability (VX-702; 0.6325 µM) | relative viability (VX-702; 2 µM) | relative viability (Dabrafenib + Navitoclax; first compound 0.003 µM) | relative viability (Dabrafenib + Navitoclax; first compound 0.009487 µM) | relative viability (Dabrafenib + Navitoclax; first compound 0.03 µM) | relative viability (Dabrafenib + Navitoclax; first compound 0.09487 µM) | relative viability (Dabrafenib + Navitoclax; first compound 0.3 µM) | relative viability (Dabrafenib + Foretinib; first compound 0.003 µM) | relative viability (Dabrafenib + Foretinib; first compound 0.009487 µM) | relative viability (Dabrafenib + Foretinib; first compound 0.03 µM) | relative viability (Dabrafenib + Foretinib; first compound 0.09487 µM) | relative viability (Dabrafenib + Foretinib; first compound 0.3 µM)
201T | 0.958 | 1.01 | 0.914 | 0.987 | 1.04 | 0.981 | 1 | 1.01 | 0.976 | 1.19 | 1.18 | 1.15 | 1.15 | 1.26 | 1.11 | 1.2 | 1.12 | 1.14 | 1.26
A549 | 0.928 | 1.03 | 0.93 | 0.93 | 0.969 | 0.999 | 0.928 | 1.02 | 1.07 | 1.09 | 1.26 | 1.28 | 1.18 | 1.2 | 0.979 | 0.988 | 0.911 | 0.988 | 0.975
A-427 | – | 0.983 | 0.849 | 0.797 | 1.03 | 0.985 | 0.964 | 1.04 | 0.754 | – | 0.954 | 0.91 | 0.803 | 0.888 | – | 1.24 | 1.14 | 0.87 | 1.01
ABC-1 | 0.833 | 1.06 | 0.871 | 0.844 | 1.02 | 0.979 | 0.813 | 0.903 | 1.02 | – | – | – | – | – | 1.03 | 1.09 | 0.866 | 1.02 | 1.26
BEN | – | 1.05 | – | 0.889 | 1.07 | 0.853 | 0.879 | 0.866 | 1.06 | – | 0.0803 | – | 0.0599 | 0.0801 | – | 0.699 | – | 0.569 | 0.713
CAL-12T | 0.96 | 1.01 | 1.05 | 0.946 | 1.18 | 0.959 | 0.994 | 1.04 | 1.07 | 1.28 | 1.32 | 1.4 | 1.3 | 1.27 | 1.07 | 1.09 | 1.11 | 1.11 | 1.44
COR-L23 | 0.976 | 1 | 0.968 | 0.93 | 0.998 | 1.17 | 1.05 | 1.16 | 1.21 | 0.948 | 0.997 | 0.908 | 0.927 | 0.894 | 0.947 | 0.982 | 0.873 | 0.882 | 0.935
COR-L 105 | 0.851 | 0.995 | 0.927 | 0.955 | 1.13 | 0.941 | 0.961 | 0.879 | 0.861 | 0.73 | 0.856 | 0.649 | 0.875 | 0.744 | 0.971 | 1.32 | 1.18 | 1.11 | 1.41
Calu-6 | 1.03 | 1.03 | 0.909 | 0.805 | 0.786 | 1.11 | 1 | 1.08 | 1.21 | 0.83 | 0.799 | 0.77 | 0.604 | 0.587 | 0.878 | 0.964 | 0.84 | 0.84 | 0.654
ChaGo-K-1 | 0.787 | 0.951 | 0.876 | 0.912 | 1.01 | 1.03 | 0.993 | 0.994 | 1.02 | – | 0.891 | 0.966 | 0.986 | 1.06 | 1.05 | 0.902 | 0.906 | 0.883 | 0.95
EBC-1 | 0.856 | 0.987 | 0.895 | 0.533 | 0.391 | 1.08 | 0.999 | 0.968 | 1.08 | 0.369 | 0.373 | 0.32 | 0.145 | 0.221 | 0.102 | 0.0889 | 0.103 | 0.0949 | 0.108
EKVX | 0.693 | 1.03 | 0.932 | 0.941 | 1.14 | 0.95 | 0.863 | 0.891 | 0.923 | 0.778 | 1.01 | 0.961 | 0.894 | 1.11 | 0.457 | 0.603 | 0.793 | 0.886 | 0.987
EMC-BAC-2 | – | 1.04 | 0.706 | 0.701 | 0.751 | 1 | 0.943 | 0.98 | 0.842 | 1.27 | 1.19 | 0.998 | 1.1 | 1.19 | 1.01 | 1.01 | 0.766 | 0.924 | 1.06
EPLC-272H | 0.509 | 1.01 | 0.971 | 0.785 | 0.964 | 1.03 | 0.827 | 1.02 | 1.01 | – | 1.39 | 0.997 | 0.875 | 0.824 | 0.671 | 0.811 | 0.619 | 0.587 | 0.738
H3255 | 0.868 | 1.05 | 0.992 | 0.873 | 1.04 | 0.978 | 0.966 | 0.96 | 1.05 | 0.375 | 0.669 | 0.548 | 0.441 | 0.566 | 0.688 | 0.897 | 1.09 | 0.667 | 0.839
HARA | 0.737 | 1 | – | 0.922 | 1.12 | 0.964 | 0.897 | 0.965 | 0.969 | 1.14 | 1.15 | 1.07 | 1.07 | 1.12 | 0.907 | 0.906 | – | 0.78 | 0.972
HCC-15 | 0.942 | 1.04 | 1.04 | 0.928 | 0.921 | 0.989 | 0.982 | 1.08 | 1.03 | 0.728 | 0.787 | 0.734 | 0.694 | 0.833 | 0.944 | 1.07 | 1.08 | 0.852 | 1.03
